Laboratory results published in patent US11401555B2, “Genetic polymorphisms associated with stroke, methods of detection and uses thereof” (CELERA CORPORATION, priority 2008, dated 2022).

Assay: Stroke statin response (SSR) in the PROSPER pravastatin trial: pravastatin-treated versus placebo-treated, by SNP genotype
Type: in vivo, human
Source text: (hCV26505812) for association with SSR in CARE (Table 37) and PROSPER (Table 38), including both unadjusted and adjusted analyses (adjusted for factors such as age, gender, smoking status, hypertension, diabetes, BMI, and LDL and HDL levels). Table 37 provides results in CARE, and Table 38 provides results in PROSPER (whether each analysis is unadjusted or adjusted is indicated in the “adjust” column in Table 37, or by “unadj” and “adj” column labels in Tables 38). With respect to Tables 22-32 and 37-38, the columns labeled “Genotype” (in Tables 22-28 and 37), “Geno_Placebo” (in Tables 29-30 and 38), and “Geno_Resp” (in Tables 31-32 and 38) indicate the genotype which the given stroke risk or SSR results correspond to. […] In Tables 29-32 and 38, the columns labeled “LOWER_PLACEBO” and “UPPER_PLACEBO” (Tables 29-30 and 38), and “LOWER_RESP” and “UPPER_RESP” (Tables 31-32 and 38), refer to the lower and upper 95% confidence intervals for the hazard ratios. See Example Six below for further information relating to Tables 22-32 and 37-38. […] As used herein, the term “benefit” (with respect to a preventive or therapeutic drug treatment) is defined as achieving a reduced risk for a disease that the drug is intended to treat or prevent (e.g., stroke) by administrating the drug treatment, compared with the risk for the disease in the absence of receiving the drug treatment (or receiving a placebo in lieu of the drug treatment) for the same genotype. The term “benefit” may be used herein interchangeably with terms such as “respond positively” or “positively respond”. For stroke risk and statin response associations based on samples from the CARE and PROSPER trials described herein, stroke risk is assessed by comparing the risk of stroke for a given genotype with the risk of stroke for a reference genotype either in the placebo arm of the trial or in the whole study population of the trial, and statin response is assessed by comparing the risk of stroke in the pravastatin arm of the trial with the risk of stroke in the placebo arm of the trial for the same genotype. […] Example Five above describes the analysis of these 61 SNPs plus 17 additional SNPs in the German West Study. […] In PROSPER, SNPs were analyzed for association with stroke risk or SSR, in the whole study cohort (strata: “ALL”), or in the subgroup with a history of CVD (strata: “hist”) or without a CVD history (strata: “no hist”). […] Also in the CARE and PROSPER trials, the chromosome 9p21 SNP […] (hCV26505812) was analyzed further for association with SSR, including unadjusted and adjusted analysis. Adjusted analysis in CARE (Table 37) was adjusted for age, gender, smoking status, hypertension, diabetes, body mass index (BMI), and LDL and HDL levels, and adjusted analysis in PROSPER (Table 38) was adjusted for country, gender, age, LDL, HDL, smoking status (current vs. past or never), history of hypertension, and diabetes. Table 37 provides results in CARE, and Table 38 provides results in PROSPER (whether each analysis is unadjusted or adjusted is indicated in the “adjust” column in Table 37, or by “unadj” and “adj” column labels in Tables 38). All the p-values (including Pint values) provided in Tables 37-38 are two-sided p-values.

[1] = hCV2169762 rs1804689 HPS1, GENO_RESP GG, MODE GEN, STRATA no hist
[2] = hCV2169762 rs1804689 HPS1, GENO_RESP GT, MODE GEN, STRATA hist
[3] = hCV2169762 rs1804689 HPS1, GENO_RESP GT, MODE GEN, STRATA no hist
[4] = hCV2169762 rs1804689 HPS1, GENO_RESP TT, MODE GEN, STRATA no hist
[5] = hCV2442143 rs12544854 ASAH1, GENO_RESP CC + CT, MODE REC, STRATA no hist
[6] = hCV2442143 rs12544854 ASAH1, GENO_RESP TT + CT, MODE DOM, STRATA hist
[7] = hCV26505812 rs10757274 C9p21, GENO_RESP AA, MODE GEN, STRATA ALL
[8] = hCV26505812 rs10757274 C9p21, GENO_RESP AA, MODE GEN, STRATA no hist
[9] = hCV26505812 rs10757274 C9p21, GENO_RESP AG, MODE GEN, STRATA ALL
[10] = hCV26505812 rs10757274 C9p21, GENO_RESP AG, MODE GEN, STRATA no hist
[11] = hCV26505812 rs10757274 C9p21, GENO_RESP GG + AG, MODE DOM, STRATA ALL
[12] = hCV26505812 rs10757274 C9p21, GENO_RESP GG + AG, MODE DOM, STRATA no hist
[13] = hCV26505812 rs10757274 C9p21, GENO_RESP GG, MODE GEN, STRATA ALL
[14] = hCV26505812 rs10757274 C9p21, GENO_RESP GG, MODE GEN, STRATA no hist
[15] = hCV27511436 rs3750145 FZD1, GENO_RESP CC + CT, MODE DOM, STRATA no hist
[16] = hCV27511436 rs3750145 FZD1, GENO_RESP CC, MODE GEN, STRATA no hist
[17] = hCV27511436 rs3750145 FZD1, GENO_RESP CT, MODE GEN, STRATA no hist
[18] = hCV27511436 rs3750145 FZD1, GENO_RESP TT, MODE GEN, STRATA no hist
[19] = hCV27830265 rs12762303 ALOX5, GENO_RESP GG + AG, MODE DOM, STRATA no hist
[20] = hCV29539757 rs10110659 KCNQ3, GENO_RESP AA, MODE GEN, STRATA hist
[21] = hCV29539757 rs10110659 KCNQ3, GENO_RESP AC, MODE GEN, STRATA hist
[22] = hCV29539757 rs10110659 KCNQ3, GENO_RESP CC, MODE GEN, STRATA hist

With `CC[C@H](C)C(=O)O[C@H]1C[C@H](O)C=C2C=C[C@H](C)[C@H](CC[C@@H](O)C[C@@H](O)CC(=O)O)[C@H]21` [pravastatin] the “HR_RESP (hazard ratio, pravastatin-treated versus placebo-treated)” value (hCV2169762 rs1804689 HPS1, GENO_RESP GG, MODE GEN, STRATA hist) was 1.104, the EVENTS_RESP [1] was 30 and the “HR_RESP (hazard ratio, pravastatin-treated versus placebo-treated)” value [1] was 0.659. The EVENTS_RESP [2] was 47, the “HR_RESP (hazard ratio, pravastatin-treated versus placebo-treated)” value [2] was 0.9425 and the EVENTS_RESP [3] was 47. The “HR_RESP (hazard ratio, pravastatin-treated versus placebo-treated)” value [3] was 1.268, the EVENTS_RESP (hCV2169762 rs1804689 HPS1, GENO_RESP TT + GT, MODE DOM, STRATA no hist) was 57 and the “HR_RESP (hazard ratio, pravastatin-treated versus placebo-treated)” value (hCV2169762 rs1804689 HPS1, GENO_RESP TT, MODE GEN, STRATA hist) was 0.3365. For the same compound, the EVENTS_RESP [4] was 10, the “HR_RESP (hazard ratio, pravastatin-treated versus placebo-treated)” value [4] was 1.275 and the EVENTS_RESP [5] was 72. The “HR_RESP (hazard ratio, pravastatin-treated versus placebo-treated)” value [5] was 1.087, the EVENTS_RESP [6] was 88 and the “HR_RESP (hazard ratio, pravastatin-treated versus placebo-treated)” value [6] was 1.043. For the same compound, the EVENTS_RESP [7] was 56, the “HR_RESP (hazard ratio, pravastatin-treated versus placebo-treated)” value [7] was 1.33 and the EVENTS_RESP [8] was 28. For the same compound, the “HR_RESP (hazard ratio, pravastatin-treated versus placebo-treated)” value [8] was 1.57, the EVENTS_RESP [9] was 94 and the “HR_RESP (hazard ratio, pravastatin-treated versus placebo-treated)” value [9] was 0.7769. For the same compound, the EVENTS_RESP [10] was 35, the “HR_RESP (hazard ratio, pravastatin-treated versus placebo-treated)” value [10] was 0.6977 and the EVENTS_RESP [11] was 145. For the same compound, the “HR_RESP (hazard ratio, pravastatin-treated versus placebo-treated)” value [11] was 0.8638, the EVENTS_RESP [12] was 59 and the “HR_RESP (hazard ratio, pravastatin-treated versus placebo-treated)” value [12] was 0.8132. For the same compound, the EVENTS_RESP [13] was 51, the “HR_RESP (hazard ratio, pravastatin-treated versus placebo-treated)” value [13] was 1.082 and the EVENTS_RESP [14] was 24. The “HR_RESP (hazard ratio, pravastatin-treated versus placebo-treated)” value [14] was 1.068, the EVENTS_RESP [15] was 27 and the “HR_RESP (hazard ratio, pravastatin-treated versus placebo-treated)” value [15] was 1.388. The EVENTS_RESP [16] was 1, the “HR_RESP (hazard ratio, pravastatin-treated versus placebo-treated)” value [16] was 0.3492 and the EVENTS_RESP [17] was 26. For the same compound, the “HR_RESP (hazard ratio, pravastatin-treated versus placebo-treated)” value [17] was 1.575, the EVENTS_RESP [18] was 60 and the “HR_RESP (hazard ratio, pravastatin-treated versus placebo-treated)” value [18] was 0.8524. For the same compound, the EVENTS_RESP [19] was 25, the “HR_RESP (hazard ratio, pravastatin-treated versus placebo-treated)” value [19] was 1.479 and the EVENTS_RESP [20] was 7. For the same compound, the “HR_RESP (hazard ratio, pravastatin-treated versus placebo-treated)” value [20] was 0.4115, the EVENTS_RESP [21] was 44 and the “HR_RESP (hazard ratio, pravastatin-treated versus placebo-treated)” value [21] was 0.9946. The EVENTS_RESP (hCV29539757 rs10110659 KCNQ3, GENO_RESP CC + AC, MODE REC, STRATA hist) was 106, the EVENTS_RESP [22] was 62 and the “HR_RESP (hazard ratio, pravastatin-treated versus placebo-treated)” value [22] was 1.016.
